Measured values from EP0514133A1, “Benzodiazepine derivatives, compositions containing them and their use in therapy” (priority 1991, dated 1992).
Like-named read-outs stand apart in the source and are kept apart here.

Legend:
CCK receptor (pancreas) = target: T1, CCK receptor (pancreas) (Rattus norvegicus, UniProt P30551); experiment: biochemical; assay type: binding; settings: rat pancreas membranes; for IC50: 50 pM 125I-CCK-8, 25°C 2 hours
T1 construct: The whole pancreas was dissected free of fat tissue and was homogenized; from tissue; host or cells: rat pancreas membrane homogenate
T1 sequence (P30551 1-444): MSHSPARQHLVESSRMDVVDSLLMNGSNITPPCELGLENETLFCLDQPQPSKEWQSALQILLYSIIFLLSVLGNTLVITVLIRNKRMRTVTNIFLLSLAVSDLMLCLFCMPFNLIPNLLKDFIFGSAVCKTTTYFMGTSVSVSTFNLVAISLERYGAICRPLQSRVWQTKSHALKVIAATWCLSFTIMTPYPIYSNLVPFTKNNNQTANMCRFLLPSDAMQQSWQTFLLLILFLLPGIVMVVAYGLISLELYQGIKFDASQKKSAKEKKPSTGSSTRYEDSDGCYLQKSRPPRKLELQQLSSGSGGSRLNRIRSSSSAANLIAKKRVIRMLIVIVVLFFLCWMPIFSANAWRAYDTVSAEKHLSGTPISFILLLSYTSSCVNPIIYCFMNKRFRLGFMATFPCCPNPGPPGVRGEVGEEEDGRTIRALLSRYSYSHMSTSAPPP
Description: CCK-8 sulphated was radiolabelled with ¹²⁵I-Bolton Hunter reagent (2000 Ci/mmole). Receptor binding was performed according to Chang and Lotti (Proc. Natl. Acad. Sci. 83, 4923-4926, 1986) with minor modifications.
Male Sprague-Dawley rats (150-200g) were sacrificed by decapitation. The whole pancreas was dissected free of fat tissue and was homogenized in 25 volumes of ice-cold 10 mM N-2-hydroxyethyl-piperazine-N′-2-ethane sulphonic acid (HEPES) buffer with 0.1% soya bean trypsin inhibitor (pH 7.4 at 25°C) with a Kinematica Polytron. The homogenates were centrifuged at 47,800 g for 10 min. Pellets were resuspended in 10 volumes of binding assay buffer (20mM (HEPES)), 1mM ethylene glycol-bis-(β-aminoethylether-N,N′-tetraacetic acid) (EGTA), 5mM MgCl₂, 150 mM NaCl, bacitracin 0.25 mg/ml, soya bean trypsin inhibitor 0.1 mg/ml, and bovine serum albumin 2 mg/ml pH 6.5 at 25°C) using a Teflon (trademark) homogenizer, 15 strokes at 500 rpm. The homogenate was further diluted in binding assay buffer to give a final concentration of 0.5 mg original wet weight/1 ml buffer. […] All assays were run in duplicate. The reaction mixtures were incubated at 25°C for 2 hours and the reaction terminated by rapid filtration (Brandell 24 well cell harvester) over Whatman GF/C filters, washing 3 x 4 mls with ice-cold 100 Mm NaCl. The radioactivity on the filters was counted with a LKB gamma counter.
(§1) Drug displacement studies were performed with at least 10 concentrations of compounds of Formula I and the IC₅₀ values were determined by regression analysis IC₅₀ refers to the concentration of the compound required to inhibit 50% of specific binding of ¹²⁵I-CCK-8.

[1] = target: T2, CCK receptor (brain, cortex) (Cavia porcellus, UniProt H0VZC5); experiment: biochemical; assay type: binding, guinea pig
T2 construct: the cortex was removed and homogenized in 25 mL ice-cold 0.32 M sucrose; from tissue; host or cells: guinea pig brain cortex P2 membrane pellet
T2 sequence (H0VZC5 1-426): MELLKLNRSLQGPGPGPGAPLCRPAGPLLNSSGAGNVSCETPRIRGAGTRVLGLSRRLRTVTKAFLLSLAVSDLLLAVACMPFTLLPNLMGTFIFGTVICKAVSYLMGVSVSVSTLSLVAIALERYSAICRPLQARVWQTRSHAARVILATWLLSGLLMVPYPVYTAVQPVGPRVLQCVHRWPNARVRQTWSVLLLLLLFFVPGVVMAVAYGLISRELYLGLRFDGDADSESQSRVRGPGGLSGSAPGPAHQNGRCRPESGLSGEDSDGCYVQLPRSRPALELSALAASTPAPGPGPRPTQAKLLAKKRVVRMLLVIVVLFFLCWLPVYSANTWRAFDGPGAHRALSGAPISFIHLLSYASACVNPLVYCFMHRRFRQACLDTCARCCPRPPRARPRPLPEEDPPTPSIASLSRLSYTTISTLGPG
Description: CCK-8 sulphated was radiolabelled and the binding was performed according to the description for the pancreas method with minor modifications.
Male Hartley guinea pigs (300-500g) were sacrificed by decapitation and the cortex was removed and homogenized in 25 mL ice-cold 0.32 M sucrose. The homogenates were centrifuged at 1000 g for 10 minutes and the resulting supernatant was recentrifuged at 20,000 g for 20 minutes. The P₂ pellet was resuspended in binding assay buffer (20mM HEPES, 5 mM MgCl₂, 0.25 mg/ml bacitracin, 1 mM EGTA pH 6.5 at 25°C), using a Teflon (trademark) homogenizer (5 strokes at 500 rpm) to give a final concentration of 10 mg original wet weight/1.2 ml buffer. […] All assays were run in duplicate. The reaction mixtures were incubated at 25°C for 2 hours and then the reaction was terminated by rapid filtration (Brandell 24 well cell harvester) on Whatman GF/C filters with 3 x 5 ml washes of cold 100 mM NaCl. The radioactivity on the filters was counted with a LKB gamma counter.
as §1

[2] = guinea pig cortex membranes, 50 pM 125I-CCK-8, 25°C 2 hours, read-out: IC50 ^125I-CCK Brain

## CN1C(=O)C(NC(=O)Nc2cccc(S(=O)(=O)NC(=O)c3ccccc3)c2)N=C(C2CCCCC2)c2ccccc21 (racemic) [Example 13, N-(3(R,S)-5-Cyclohexyl-2,3-dihydro-1-methyl-2-oxo-1H-1,4-benzodiazepin-3-yl] N′-[3-(phenylcarbonylaminosulphonyl)phenyl] urea]
CCK receptor (pancreas)
  IC50: 738 nM

## CN1C(=O)[C@@H](NC(=O)Nc2cccc(C(=O)NS(=O)(=O)c3ccccc3)c2)N=C(C2CCCCC2)c2ccccc21 [Example 35, N-[3(S)-5-Cyclohexyl-2,3-dihydro-1-methyl-2-oxo-1H-1,4-benzodiazepin-3-yl] N′-[3-(phenylsulphonylaminocarbonyl)phenyl] urea]
[1]; [2]
  IC50: 50.8 nM
CCK receptor (pancreas)
  IC50: 10.2 nM

## CN1C(=O)C(NC(=O)Nc2cccc(-c3nnn(C)n3)c2)N=C(C2CCCCC2)c2ccccc21 (racemic) [Example 28, N-[3(R,S)-5-Cyclohexyl-2,3-dihydro-1-methyl-2-oxo-1H-1,4-benzodiazepin-3-yl] N′-[3-(2-methyltetrazol-5-yl)phenyl]urea]
[1]; [2]
  IC50: 4 nM
CCK receptor (pancreas)
  IC50: 8.3 nM

## Cc1ccc(NC(=O)N[C@@H]2N=C(C3CCCCC3)c3ccccc3N(C)C2=O)cc1C(=O)NS(C)(=O)=O [Example 34, N-[3(R)-5-Cyclohexyl-2,3-dihydro-1-methyl-2-oxo-1H-1,4-benzodiazepin-3-yl] N′-[4-methyl-3-(methylsulphonylaminocarbonyl)phenyl] urea]
[1]; [2]
  IC50: 2.3 nM
CCK receptor (pancreas)
  IC50: 1700 nM

## CN1C(=O)C(NC(=O)Nc2cccc(C(=O)O)c2)N=C(C2CCCCC2)c2ccccc21 (racemic) [Example 10, N-[3(R,S)-5-Cyclohexyl-2,3-dihydro-1-methyl-2-oxo-1H-1,4-benzodiazepin-3-yl] N′-[3-carboxyphenyl] urea]
[1]
  IC50: 1.4 nM
CCK receptor (pancreas)
  IC50: 3.1 nM

## CN1C(=O)C(NC(=O)Nc2cccc(-c3nn[nH]n3)c2)N=C(C2CCCC2)c2ccccc21 (racemic) [Example 8, N-[3(R,S)-5-Cyclopentyl-2,3-dihydro-1-methyl-2-oxo-1H-1,4-benzodiazepin-3-yl] N′-[3-tetrazol-5-ylphenyl] urea]
[1]; [2]
  IC50: 1.6 nM
CCK receptor (pancreas)
  IC50: 56 nM

## CCN1C(=O)C(NC(=O)Nc2cccc(C(=O)NS(C)(=O)=O)c2)N=C(C2CCCC2)c2ccccc21 (racemic) [Example 29, N-(3(R,S)-5-Cyclopentyl-2,3-dihydro-1-ethyl-2-oxo-1H-1,4-benzodiazepin-3-yl] N′-(3-(methylsulphonylaminocarbonyl)phenyl] urea]
[1]; [2]
  IC50: 6.3 nM
CCK receptor (pancreas)
  IC50: 22 nM

## CC(C)C(=O)NS(=O)(=O)c1cccc(NC(=O)NC2N=C(C3CCCCC3)c3ccccc3N(C)C2=O)c1 (racemic) [Example 11, N-[3(R,S)-5-Cyclohexyl-2,3-dihydro-1-methyl-2-oxo-1H-1,4-benzodiazepin-3-yl] N′-(3-(isopropylcarbonylaminosulphonyl)phenyl] urea]
[1]; [2]
  IC50: 0.32 nM
CCK receptor (pancreas)
  IC50: 118 nM

## CN1C(=O)C(NC(=O)Nc2cccc(S(=O)(=O)NC(=O)C(C)(C)C)c2)N=C(C2CCCCC2)c2ccccc21 (racemic) [Example 32, N-(3(R,S)-5-Cyclohexyl-2,3-dihydro-1-methyl-2-oxo-1H-1,4-benzodiazepin-3-yl] N′-(3-(1,1-dimethylethylcarbonylaminosulphonyl)phenyl] urea]
[1]; [2]
  IC50: 1.3 nM
CCK receptor (pancreas)
  IC50: 610 nM

## CN1C(=O)C(NC(=O)Nc2cccc(C(=O)NS(C)(=O)=O)c2)N=C(C2CCCCC2)c2ccccc21 (racemic) [Example 16, N-(3(R,S)-5-Cyclohexyl-2,3-dihydro-1-methyl-2-oxo-1H-1,4-benzodiazepin-3-yl] N′-[3-(methylsulphonylaminocarbonyl)phenyl] urea]
CCK receptor (pancreas)
  IC50: 2 nM

## CN1C(=O)C(NC(=O)Nc2cccc(C(=O)NS(=O)(=O)C(F)(F)F)c2)N=C(C2CCCCC2)c2ccccc21 (racemic) [Example 18, N-[3(R,S)-5-Cyclohexyl-2,3-dihydro-1-methyl-2-oxo-1H-1,4-benzodiazepin-3-,yl] N′-[3-(trifluoromethylsulphonylaminocarbonyl)phenyl] urea]
[1]; [2]
  IC50: 0.09 nM
CCK receptor (pancreas)
  IC50: 13.8 nM

## CC(C)CN1C(=O)C(NC(=O)Nc2cccc(-c3nn[nH]n3)c2)N=C(C2CCCCC2)c2ccccc21 (racemic) [Example 2, N-[3(R,S)-5-Cyclohexyl-2,3-dihydro-1-(2-methylpropyl)-2-oxo-1H-1,4-benzodiazepin-3-yl] N′-[3-tetrazol-5-ylphenyl] urea]
[1]; [2]
  IC50: 0.42 nM
CCK receptor (pancreas); at 3μM, read-out: inhibition of ^125I-CCK binding, Pancreas
  inhibition at 3 µM: ~27%

## CN1C(=O)C(NC(=O)Nc2ccc3c(c2)C(=O)NS(=O)(=O)C3)N=C(C2CCCCC2)c2ccccc21 (racemic) [Example 44, N-[3(R,S)-5-Cyclohexyl-2,3-dihydro-1-methyl-2-oxo-1H-1,4-benzodiazepin-3-yl] N′-(3,4-dihydro-2,2-dioxo-4-oxo-1H-2,3-benzothiazin-6-yl] urea]
[1]; [2]
  IC50: 3.4 nM
CCK receptor (pancreas)
  IC50: 100 nM

## CCN1C(=O)C(NC(=O)Nc2cccc(-c3nn[nH]n3)c2)N=C(C2CCCC2)c2ccccc21 (racemic) [Example 5, N-[3(R,S)-5-Cyclopentyl-2,3-dihydro-1-ethyl-2-oxo-1H-1,4-benzodiazepin-3-yl] N′-[3-tetrazol-5-ylphenyl]urea]
[1]; [2]
  IC50: 0.71 nM
CCK receptor (pancreas)
  IC50: 140 nM

## CC(C)S(=O)(=O)NC(=O)c1cccc(NC(=O)NC2N=C(C3CCCC3)c3ccccc3N(C)C2=O)c1 (racemic) [Example 38, N-(3(R,S)-5-Cyclopentyl-2,3-dihydro-1-methyl-2-oxo-1H-1,4-benzodiazepin-3-yl] N′-[3-(isopropylsulphonylaminocarbonyl)phenyl] urea]
[1]; [2]
  IC50: 6.8 nM
CCK receptor (pancreas)
  IC50: 300 nM

## CN1C(=O)C(NC(=O)Nc2cccc(C(=O)NS(=O)(=O)c3ccccc3)c2)N=C(C2CCCC2)c2ccccc21 (racemic) [Example 40, N-[3(R,S)-5-Cyclopentyl-2,3-dihydro-1-methyl-2-oxo-1H-1,4-benzodiazepin-3-yl] N′-[3-(phenylsulphonylaminocarbonyl)phenyl] urea]
CCK receptor (pancreas)
  IC50: 310 nM

## Cc1cccc(NC(=O)NC2N=C(C3CCCCC3)c3ccccc3N(C)C2=O)c1 (single isomer, unassigned) [7 (Peak B)]
[1]; [2]
  IC50: 100 nM

## Cc1ccccc1S(=O)(=O)NC(=O)c1cccc(NC(=O)N[C@@H]2N=C(C3CCCCC3)c3ccccc3N(C)C2=O)c1 [Example 33, N-[3(R)-5-Cyclohexyl-2,3-dihydro-1-methyl-2-oxo-1H-1,4-benzodiazepin-3-yl] N′-[3-(2-methylphenylsulphonylaminocarbonyl)phenyl] urea]
CCK receptor (pancreas)
  IC50: 1600 nM

## CC(C)S(=O)(=O)NC(=O)c1cccc(NC(=O)NC2N=C(C3CCCCC3)c3ccccc3N(C)C2=O)c1 (single isomer, unassigned) [24 (Peak B)]
CCK receptor (pancreas)
  IC50: 5 nM
